Results taken from PubChem BioAssay AID256 (DTP/NCI, 2004).
Several values for one entry are separate records, joined by “and”; a condition that tells them apart may be missing. Equal entries are not always repeated. Toxic doses and inconclusive results are not listed. How the source made its calls: active means survival T/C of 150% or more; inactive means T/C below 125% in these data.

Tested on: CD2F1 mice, L1210 leukemia ip, survival T/C
Assay: NCI In Vivo Anticancer Drug Screen. Data for tumor model L1210 Leukemia (intraperitoneal) in CD2F1 (CDF1) mice
Settings: higher = longer survival
Summary of the method: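 Tumor-bearing mice (transplanted tumor) were split into treated and vehicle control groups, and the measured endpoint of each treated group was divided by that of its vehicle controls.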

[1] = endpoint: mean survival time, dose: 100.0 mg/kg/injection, schedule: Q01DX001 (ip), vehicle: saline
[2] = endpoint: mean survival time, dose: 200.0 mg/kg/injection, schedule: Q01DX001 (ip), vehicle: saline
[3] = endpoint: mean survival time, dose: 400.0 mg/kg/injection, schedule: Q01DX001 (ip), vehicle: saline
[4] = endpoint: mean survival time, dose: 100.0 mg/kg/injection, schedule: Q01DX009 (ip), vehicle: saline with Tween-80
[5] = endpoint: mean survival time, dose: 200.0 mg/kg/injection, schedule: Q01DX009 (ip), vehicle: saline with Tween-80
[6] = endpoint: mean survival time, dose: 100.0 mg/kg/injection, schedule: Q04DX003 (ip), vehicle: saline with Tween-80
[7] = endpoint: mean survival time, dose: 200.0 mg/kg/injection, schedule: Q04DX003 (ip), vehicle: saline with Tween-80
[8] = endpoint: mean survival time, dose: 400.0 mg/kg/injection, schedule: Q01DX009 (ip), vehicle: saline with Tween-80

Measured: T/C

CC[C@]1(O)C[C@H]2CN(CCc3c([nH]c4ccccc34)[C@@](C(=O)OC)(c3cc4c(cc3OC)N(C)[C@H]3[C@@](O)(C(=O)OC)[C@H](OC(C)=O)[C@]5(CC)C=CCN6CC[C@]43[C@@H]65)C2)C1
inactive: endpoint: mean survival time, dose: 0.03 mg/kg/injection, schedule: Q01DX009 (ip), vehicle: water 92 % of control | endpoint: mean survival time, dose: 0.06 mg/kg/injection, schedule: Q01DX009 (ip), vehicle: water 97 % of control | endpoint: mean survival time, dose: 0.13 mg/kg/injection, schedule: Q01DX009 (ip), vehicle: water 95 % of control | endpoint: mean survival time, dose: 0.25 mg/kg/injection, schedule: Q01DX007 (ip), vehicle: water 120 % of control | endpoint: mean survival time, dose: 0.5 mg/kg/injection, schedule: Q04DX003 (ip), vehicle: water 120 % of control | endpoint: mean survival time, dose: 1.0 mg/kg/injection, schedule: Q01DX007 (ip), vehicle: water 91 % of control | endpoint: mean survival time, dose: 1.0 mg/kg/injection, schedule: Q01DX009 (ip), vehicle: saline 90 % of control and 91 % of control | endpoint: mean survival time, dose: 1.0 mg/kg/injection, schedule: Q01DX009 (ip), vehicle: water 86 % of control | endpoint: mean survival time, dose: 1.0 mg/kg/injection, schedule: Q04DX003 (ip), vehicle: water 120 % of control | endpoint: median survival time, dose: 0.83 mg/kg/injection, schedule: Q01DX009 (ip), vehicle: saline 110 % of control | endpoint: median survival time, dose: 1000.0 micrograms/kg/injection, schedule: Q01DX009 (ip), vehicle: saline 98 % of control

CNC(=O)ON=C(c1ccccc1)c1ccccc1
inactive: [1] 98 % of control | [2] 104 % of control | [3] 102 % of control

Nc1ccc2ccc(O)cc2c1
inactive: endpoint: mean survival time, dose: 100.0 mg/kg/injection, schedule: Q01DX009 (ip), vehicle: saline 97 % of control | endpoint: mean survival time, dose: 100.0 mg/kg/injection, schedule: Q04DX003 (ip), vehicle: saline 103 % of control | endpoint: mean survival time, dose: 200.0 mg/kg/injection, schedule: Q04DX003 (ip), vehicle: saline 108 % of control

CCCCCCCCCCCCNC(=O)C[N+](C)(C)Cc1ccc2c(c1)CCCC2
inactive: endpoint: mean survival time, dose: 5.0 mg/kg/injection, schedule: Q04DX003 (ip), vehicle: saline with Tween-80 95 % of control | endpoint: mean survival time, dose: 10.0 mg/kg/injection, schedule: Q04DX003 (ip), vehicle: saline with Tween-80 105 % of control

C=C1CC(O)C2C(=C)C(=O)OC2C2C(C)C(=O)CC12 (centres undefined)
inactive: endpoint: mean survival time, dose: 6.25 mg/kg/injection, schedule: Q01DX009 (ip), vehicle: Klucel (hydroxypropylcellulose) (HPC) 95 % of control | endpoint: mean survival time, dose: 12.5 mg/kg/injection, schedule: Q01DX009 (ip), vehicle: Klucel (hydroxypropylcellulose) (HPC) 100 % of control | endpoint: mean survival time, dose: 25.0 mg/kg/injection, schedule: Q01DX009 (ip), vehicle: Klucel (hydroxypropylcellulose) (HPC) 105 % of control

CN(C)C(=O)c1cccc(NC(=O)NCc2cccc(N3C(N)=NC(N)=NC3(C)C)c2)c1
inactive: endpoint: mean survival time, dose: 25.0 mg/kg/injection, schedule: Q01DX009 (ip), vehicle: saline 94 % of control | endpoint: mean survival time, dose: 50.0 mg/kg/injection, schedule: Q01DX009 (ip), vehicle: saline 95 % of control

O=C1CN=C(c2ccccn2)c2cc(Br)ccc2N1
inactive: endpoint: mean survival time, dose: 100.0 mg/kg/injection, schedule: Q04DX003 (ip), vehicle: Klucel (hydroxypropylcellulose) (HPC) 95 % of control | endpoint: mean survival time, dose: 119.0 mg/kg/injection, schedule: Q01DX009 (ip), vehicle: Klucel (hydroxypropylcellulose) (HPC) 95 % of control | endpoint: mean survival time, dose: 187.0 mg/kg/injection, schedule: Q01DX009 (ip), vehicle: Klucel (hydroxypropylcellulose) (HPC) 100 % of control | endpoint: mean survival time, dose: 200.0 mg/kg/injection, schedule: Q04DX003 (ip), vehicle: Klucel (hydroxypropylcellulose) (HPC) 104 % of control | endpoint: mean survival time, dose: 266.0 mg/kg/injection, schedule: Q01DX009 (ip), vehicle: Klucel (hydroxypropylcellulose) (HPC) 95 % of control | endpoint: mean survival time, dose: 400.0 mg/kg/injection, schedule: Q01DX009 (ip), vehicle: Klucel (hydroxypropylcellulose) (HPC) 94 % of control | endpoint: mean survival time, dose: 400.0 mg/kg/injection, schedule: Q04DX003 (ip), vehicle: Klucel (hydroxypropylcellulose) (HPC) 104 % of control | endpoint: mean survival time, dose: 600.0 mg/kg/injection, schedule: Q01DX009 (ip), vehicle: Klucel (hydroxypropylcellulose) (HPC) 95 % of control

c1cn[nH]c1
inactive: endpoint: median survival time, dose: 12.5 mg/kg/injection, schedule: Q01DX009 (ip), vehicle: saline + alcohol 103 % of control and 105 % of control | endpoint: median survival time, dose: 12.5 mg/kg/injection, schedule: Q01DX009 (ip), vehicle: saline 95 % of control | endpoint: median survival time, dose: 25.0 mg/kg/injection, schedule: Q01DX009 (ip), vehicle: saline + alcohol 101 % of control and 110 % of control | endpoint: median survival time, dose: 25.0 mg/kg/injection, schedule: Q01DX009 (ip), vehicle: saline 102 % of control | endpoint: median survival time, dose: 50.0 mg/kg/injection, schedule: Q01DX009 (ip), vehicle: saline + alcohol 121 % of control and 105 % of control | endpoint: median survival time, dose: 50.0 mg/kg/injection, schedule: Q01DX009 (ip), vehicle: saline 112 % of control | endpoint: median survival time, dose: 100.0 mg/kg/injection, schedule: Q01DX009 (ip), vehicle: saline + alcohol 117 % of control | endpoint: median survival time, dose: 200.0 mg/kg/injection, schedule: Q01DX009 (ip), vehicle: saline + alcohol 90 % of control and 102 % of control | endpoint: median survival time, dose: 200.0 mg/kg/injection, schedule: Q01DX009 (ip), vehicle: saline 90 % of control

CCCCNc1cc(Nc2ccc(Br)cc2)nc(N)n1
inactive: endpoint: mean survival time, dose: 50.0 mg/kg/injection, schedule: Q01DX009 (ip), vehicle: saline with Tween-80 98 % of control | [4] 97 % of control | [5] 98 % of control

O=C(C(Cl)Cl)N(O)c1ccccc1OCc1ccccc1
inactive: [6] 105 % of control | [7] 103 % of control | endpoint: mean survival time, dose: 400.0 mg/kg/injection, schedule: Q04DX003 (ip), vehicle: saline with Tween-80 103 % of control

CCN(C(=O)Nc1cc([N+](=O)[O-])ccc1C)c1cc(C)ccc1OC
inactive: [4] 88 % of control | [5] 94 % of control | [8] 94 % of control

CN1CCCN(C)C1c1cc([N+](=O)[O-])ccc1O
inactive: endpoint: mean survival time, dose: 6.25 mg/kg/injection, schedule: Q01DX009 (ip), vehicle: saline sonified 100 % of control | endpoint: mean survival time, dose: 6.25 mg/kg/injection, schedule: Q04DX003 (ip), vehicle: saline sonified 106 % of control | endpoint: mean survival time, dose: 12.5 mg/kg/injection, schedule: Q01DX009 (ip), vehicle: saline sonified 98 % of control | endpoint: mean survival time, dose: 12.5 mg/kg/injection, schedule: Q04DX003 (ip), vehicle: saline sonified 101 % of control | endpoint: mean survival time, dose: 25.0 mg/kg/injection, schedule: Q01DX009 (ip), vehicle: saline sonified 89 % of control | endpoint: mean survival time, dose: 25.0 mg/kg/injection, schedule: Q04DX003 (ip), vehicle: saline sonified 98 % of control

N#CN=C(N)NC(=O)c1ccccc1
inactive: [6] 102 % of control | [7] 98 % of control

O=C(O)c1cc2ccccc2s1
inactive: [1] 98 % of control | [2] 96 % of control | [3] 92 % of control

C(=C(\C[P+](c1ccccc1)(c1ccccc1)c1ccccc1)c1ccccc1)/c1ccccc1
inactive: endpoint: mean survival time, dose: 1.25 mg/kg/injection, schedule: Q01DX009 (ip), vehicle: saline with Tween-80 104 % of control | endpoint: mean survival time, dose: 2.5 mg/kg/injection, schedule: Q01DX009 (ip), vehicle: saline with Tween-80 102 % of control | endpoint: mean survival time, dose: 5.0 mg/kg/injection, schedule: Q01DX009 (ip), vehicle: saline with Tween-80 97 % of control

COc1nc(OC)c2ccn(C3CC(O)C(CO)O3)c2n1 (centres undefined)
inactive: endpoint: median survival time, dose: 12.5 mg/kg/injection, schedule: Q01DX005 (ip), vehicle: saline 106 % of control | endpoint: median survival time, dose: 25.0 mg/kg/injection, schedule: Q01DX005 (ip), vehicle: saline 103 % of control | endpoint: median survival time, dose: 50.0 mg/kg/injection, schedule: Q01DX005 (ip), vehicle: saline 102 % of control | endpoint: median survival time, dose: 100.0 mg/kg/injection, schedule: Q01DX005 (ip), vehicle: saline 93 % of control | endpoint: median survival time, dose: 200.0 mg/kg/injection, schedule: Q01DX005 (ip), vehicle: saline 98 % of control

S=c1nc(-c2ccccc2)c(-c2ccccc2)n[nH]1
inactive: endpoint: mean survival time, dose: 75.0 mg/kg/injection, schedule: Q01DX009 (ip), vehicle: saline 93 % of control | endpoint: mean survival time, dose: 150.0 mg/kg/injection, schedule: Q01DX009 (ip), vehicle: saline 98 % of control

NC(=O)NC(S(=O)(=O)O)S(=O)(=O)O
inactive: [1] 96 % of control | [2] 101 % of control | [3] 101 % of control

CCC(C)OC(=O)CCl (centres undefined)
inactive: endpoint: mean survival time, dose: 75.0 mg/kg/injection, schedule: Q01DX001 (ip), vehicle: other 97 % of control | endpoint: mean survival time, dose: 150.0 mg/kg/injection, schedule: Q01DX001 (ip), vehicle: other 96 % of control

O=CNc1ccccc1
inactive: [4] 97 % of control | [5] 105 % of control | [8] 115 % of control

COC1=CCc2c(OC)ccc(OC)c2C1
inactive: endpoint: mean survival time, dose: 12.5 mg/kg/injection, schedule: Q01DX009 (ip), vehicle: other 103 % of control | endpoint: mean survival time, dose: 25.0 mg/kg/injection, schedule: Q01DX009 (ip), vehicle: other 103 % of control | endpoint: mean survival time, dose: 50.0 mg/kg/injection, schedule: Q01DX009 (ip), vehicle: other 93 % of control | endpoint: mean survival time, dose: 100.0 mg/kg/injection, schedule: Q01DX009 (ip), vehicle: other 95 % of control | endpoint: mean survival time, dose: 200.0 mg/kg/injection, schedule: Q01DX009 (ip), vehicle: other 88 % of control
